Test results from patent US20200190062A1, “HETEROCYCLIC COMPOUND AND PHARMACEUTICAL COMPOSITION COMPRISING SAME” (BEYONDBIO INC., priority 2015, published 2020).
Counter-ions that a name gives are not always drawn.

Tests used:
HCT116 = test: Inhibition of cancer cell proliferation (MTT); format: cell-based, human
SH-SY5Y = test: Inhibition of cancer cell proliferation (MTT); format: cell-based, human; conditions: Homo sapiens, SH-SY5Y, 72 h
Summary of the method: (§1)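 Absorbance at 535 nm of DMSO-dissolved formazan (2 h MTT) gives viability versus 0.08% DMSO-treated cells, and GI50 is derived from eight concentrations between 0.004 and 10 uM. Exposure lasts 72 h at 37 °C, 5% CO2, using 3000 cells/well in 10% FBS medium ([…] for NCI-H23, otherwise DMEM).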

U-87MG = test: Inhibition of cancer cell proliferation (MTT); format: cell-based, human
Summary of the method: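 Growth inhibition over 72 h was measured in attached cultures (3000 per well) with 0.08% DMSO as the control. Viable cells were detected with a 2 h MTT step, and the concentration giving 50% inhibition was taken as GI50.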

SK-N-SH = test: Inhibition of cancer cell proliferation (MTT); format: cell-based, human; conditions: Homo sapiens, SK-N-SH, 72 h
Summary of the method: as §1

NCI-H23 = test: Inhibition of cancer cell proliferation (MTT); format: cell-based, human
Summary of the method: as §1

A549 = test: Inhibition of cancer cell proliferation (MTT); format: cell-based, human
Summary of the method: as §1

CDK4/cyclinD1 = target: T1, CDK4/cyclinD1 (Homo sapiens, UniProt P11802); test: Inhibition of CDK enzyme activity (ADP-Glo kinase assay); format: biochemical; conditions: 10 uM ATP, Rb protein substrate; read-out: IC50 CDK4/cyclinD
T1 construct: purchased Signalchem (US)
Protocol: (§2) Test compounds were prepared by dissolving the compounds obtained in the above Examples in dimethylsulfoxide (DMSO) at a concentration of 10 mM. The test compounds were diluted to 200 nM, 50 nM, […], 3.13 nM, 0.78 nM, and 0.2 nM and used in an enzyme reaction.
(§3) CDK enzyme reaction was conducted in a buffer containing 50 mM Tris-HCl (pH 7.5), 10 mM MgCl2, 1 mM EGTA, 1 mM EDTA, and 2 mM DTT. CDK1/cyclinB, CDK2/cylcinE, CDK5/p25, and CDK6/cyclinD3 enzymes commercially available from Merck Millipore were used for CDK1, CDK2, CDK5, and CDK6 enzymes, respectively, and CDK4/cyclinD1 enzyme commercially available from Signalchem (US) was used for CDK4. For CDK1, a reaction proceeded by adding 10 nM CDK1/cyclinB and 0.125 mg/ml histone H1 (Merck Millipore) substrate to the buffer and then adding 10 uM ATP thereto. For CDK2, a reaction was proceeded by adding 10 nM CDK2/cyclinE and 0.125 mg/ml histone H1 substrate to the buffer and then adding 10 uM ATP thereto. For CDK5, a reaction was proceeded by adding 10 nM CDK5/p25 and 0.125 mg/ml histone H1 substrate to the buffer and then adding 10 uM ATP thereto. For CDK4, a reaction was proceeded by adding 20 nM CDK4/cyclinD1 and 0.125 mg/ml Rb protein (Merck Millipore) to the buffer and then adding 10 uM ATP thereto. For CDK6, a reaction was proceeded by adding 50 nM CDK6/cyclinD3 and 0.125 mg/ml histone H1 substrate to the buffer and then adding 10 uM ATP thereto. Each enzyme reaction was incubated at 30° C. for 60 min. Then, the amount of ADP produced was measured using Victor X4 instrument (Perkin Elmer) after generating luminescence using ADP-Glo kinase assay kit (Promega, US). An inhibition effect on each enzyme was represented as a percentage of the luminescence value in the presence of the test compounds relative to the luminescence value without the test compounds. IC50 (nM) is the concentration of the compound to inhibit 50% of the enzyme activity.

CDK1/cyclinB = target: T2, CDK1/cyclinB (Homo sapiens, UniProt P06493); test: as above; format: biochemical; conditions: 10 uM ATP, histone H1 substrate
T2 construct: purchased Merck Millipore
Protocol: as §2, §3

CDK5/p25 = target: T3, CDK5/p25 (Homo sapiens, UniProt Q00535); test: as above; format: biochemical; conditions: 10 uM ATP, histone H1 substrate
T3 construct: purchased Merck Millipore
Protocol: as §2, §3

CDK6/cyclinD3 = target: T4, CDK6/cyclinD3 (Homo sapiens, UniProt Q00534); test: as above; format: biochemical; conditions: 10 uM ATP, histone H1 substrate; read-out: IC50 CDK6/cyclinD
T4 construct: purchased Merck Millipore
Protocol: as §2, §3

CDK2/cyclinE = target: T5, CDK2/cyclinE (Homo sapiens, UniProt P24941); test: as above; format: biochemical; conditions: 10 uM ATP, histone H1 substrate
T5 construct: purchased Merck Millipore
Protocol: as §2, §3

T98G = test: Inhibition of cancer cell proliferation (MTT); format: cell-based, human
Summary of the method: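 Plate 3000 cells/well and let them adhere for 16 h. Add compound (0.004, 0.013, 0.04, 0.12, 0.37, 1.1, 3.3, 10 uM; 0.08% DMSO) and culture for 72 h. Add MTT for 2 h, dissolve formazan in DMSO, read at 535 nm, and fit GI50.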

Tau protein = test: Inhibition of Tau phosphorylation (Western blot, pSer202) in SH-SY5Y cells; format: cell-based; conditions: 4 hrs
Protocol: SH-SY5Y cells expressing Tau protein were cultured in DMEM containing 10% FBS. 2.5×10^6 cells were placed in a 6-well plate and incubated at 5% CO2 and 37° C. for 16 hrs. The compounds obtained in the above Examples serially diluted ⅓ from 3 uM to 0.5 nM or the compounds in a concentration of 0.3, 0.1, 0.03, 0.01, 0.003 uM were treated for 4 hrs in DMEM containing 5% FBS. After 4 hrs, the culture solution was removed, washed with PBS, and cells were lysed by adding 100 ul of lysis buffer. The lysis buffer consisted of 50 mM Tris-HCl (pH 7.5), 150 mM NaCl, 5 mM EDT, 1 mM EGTA, 50 mM NaF, 1 mM PMSF, 1 mM Na3VO4, 2.5 mM DTT, 1% Triton X-100, and Protease inhibitor (Pierce). The lysed cells were centrifuged at 10,000 rpm and 4° C. for 10 min and the proteins in the supernatant were quantified. 25 ug of the proteins were electrophoresed on a SDS-PAGE gel and transferred to PVDF (Amersharm) membrane. The PVDF membrane was immersed in T-PBS containing 10% skim milk and shaken for 1 hr at room temperature. The primary antibody, Phosph-Tau[pSer202] (Abcam), diluted 1:1500 in T-PBS solution containing 5% skim milk was reacted with the membrane at room temperature for 2 hrs. The membrane was washed with T-PBS. The secondary antibody, Anti-rabbit IgG HRP, diluted 1:5000 was added to the membrane, reacted at room temperature for 1 hr, and washed.

T4 sequence (Q00534 whole entry): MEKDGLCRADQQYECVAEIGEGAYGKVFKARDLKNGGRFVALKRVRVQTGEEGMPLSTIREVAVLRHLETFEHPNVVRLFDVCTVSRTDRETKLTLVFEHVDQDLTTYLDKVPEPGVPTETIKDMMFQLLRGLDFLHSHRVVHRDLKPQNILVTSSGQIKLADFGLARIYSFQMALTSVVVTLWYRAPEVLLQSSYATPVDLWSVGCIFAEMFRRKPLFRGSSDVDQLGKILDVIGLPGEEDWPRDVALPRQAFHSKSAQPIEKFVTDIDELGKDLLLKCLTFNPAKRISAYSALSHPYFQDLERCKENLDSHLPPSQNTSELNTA
T4 sequence (P30281 whole entry partner): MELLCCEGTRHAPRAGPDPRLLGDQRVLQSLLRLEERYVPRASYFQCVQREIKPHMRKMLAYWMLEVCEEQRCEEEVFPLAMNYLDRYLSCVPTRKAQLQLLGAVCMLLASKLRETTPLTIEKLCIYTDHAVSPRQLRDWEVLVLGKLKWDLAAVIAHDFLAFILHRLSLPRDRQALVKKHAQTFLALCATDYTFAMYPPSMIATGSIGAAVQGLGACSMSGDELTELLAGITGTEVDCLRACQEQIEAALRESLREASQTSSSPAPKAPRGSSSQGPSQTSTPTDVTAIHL
T1 sequence (P11802 whole entry): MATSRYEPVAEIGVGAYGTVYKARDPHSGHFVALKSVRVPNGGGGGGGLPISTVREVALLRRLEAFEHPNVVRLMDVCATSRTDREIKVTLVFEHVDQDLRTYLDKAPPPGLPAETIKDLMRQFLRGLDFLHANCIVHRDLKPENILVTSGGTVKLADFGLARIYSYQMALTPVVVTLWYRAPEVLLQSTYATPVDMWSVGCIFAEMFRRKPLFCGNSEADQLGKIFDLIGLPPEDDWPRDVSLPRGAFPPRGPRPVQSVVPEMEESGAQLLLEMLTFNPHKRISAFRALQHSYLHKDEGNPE
T1 sequence (P24385 whole entry partner): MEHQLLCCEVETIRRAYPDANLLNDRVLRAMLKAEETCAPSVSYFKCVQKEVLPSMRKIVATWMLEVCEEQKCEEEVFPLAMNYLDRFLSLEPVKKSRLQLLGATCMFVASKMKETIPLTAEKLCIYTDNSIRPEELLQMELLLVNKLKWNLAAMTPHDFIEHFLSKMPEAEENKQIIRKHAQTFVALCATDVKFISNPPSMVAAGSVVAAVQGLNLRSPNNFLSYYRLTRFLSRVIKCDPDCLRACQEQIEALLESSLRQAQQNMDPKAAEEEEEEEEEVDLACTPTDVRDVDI
T2 sequence (P06493 whole entry): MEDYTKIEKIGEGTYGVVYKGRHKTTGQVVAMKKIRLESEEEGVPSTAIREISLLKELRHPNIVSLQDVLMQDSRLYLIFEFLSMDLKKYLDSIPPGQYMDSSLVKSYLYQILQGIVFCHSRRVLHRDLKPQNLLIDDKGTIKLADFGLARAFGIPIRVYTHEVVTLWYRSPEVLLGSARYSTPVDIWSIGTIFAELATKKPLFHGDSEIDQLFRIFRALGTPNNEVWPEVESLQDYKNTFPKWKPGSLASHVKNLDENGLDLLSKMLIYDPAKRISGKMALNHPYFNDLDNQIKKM
T2 sequence (P14635 whole entry partner): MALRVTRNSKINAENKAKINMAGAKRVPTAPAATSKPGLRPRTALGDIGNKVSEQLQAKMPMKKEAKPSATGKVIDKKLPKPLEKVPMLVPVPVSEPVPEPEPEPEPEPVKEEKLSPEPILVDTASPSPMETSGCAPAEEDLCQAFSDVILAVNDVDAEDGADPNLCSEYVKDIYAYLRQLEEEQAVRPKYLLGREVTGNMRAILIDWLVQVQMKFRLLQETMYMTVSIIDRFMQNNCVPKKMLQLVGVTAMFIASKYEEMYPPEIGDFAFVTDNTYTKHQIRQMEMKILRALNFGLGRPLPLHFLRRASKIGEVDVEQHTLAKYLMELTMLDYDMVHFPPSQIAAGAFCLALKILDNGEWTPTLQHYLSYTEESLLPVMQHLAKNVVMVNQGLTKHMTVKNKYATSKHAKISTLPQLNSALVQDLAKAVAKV
T3 sequence (Q00535 whole entry): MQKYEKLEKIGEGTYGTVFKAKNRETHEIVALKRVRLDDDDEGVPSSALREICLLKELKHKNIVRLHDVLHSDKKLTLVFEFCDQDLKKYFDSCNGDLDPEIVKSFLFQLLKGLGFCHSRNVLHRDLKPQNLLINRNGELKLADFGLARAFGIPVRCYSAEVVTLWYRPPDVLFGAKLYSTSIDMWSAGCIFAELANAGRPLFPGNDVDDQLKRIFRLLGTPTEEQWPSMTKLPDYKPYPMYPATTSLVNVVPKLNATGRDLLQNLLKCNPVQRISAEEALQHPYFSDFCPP
T3 sequence (Q15078 99-307 partner limits assumed): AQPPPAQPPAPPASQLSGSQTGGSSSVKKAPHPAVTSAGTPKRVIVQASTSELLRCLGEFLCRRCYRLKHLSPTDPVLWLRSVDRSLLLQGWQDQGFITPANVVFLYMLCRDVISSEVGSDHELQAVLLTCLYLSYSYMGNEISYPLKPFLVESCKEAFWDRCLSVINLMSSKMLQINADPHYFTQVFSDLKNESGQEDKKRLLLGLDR

GI50 (HCT116; Homo sapiens, HCT-116, 72 h) [µM] | GI50 (U-87MG; Homo sapiens, U-87 MG, 72 h) [µM] | GI50 (NCI-H23; Homo sapiens, NCI-H23, 72 h) [µM] | GI50 (A549; Homo sapiens, A549, 72 h) [µM] | IC50 (CDK4/cyclinD1) [µM] | IC50 (CDK1/cyclinB) [µM] | IC50 (CDK5/p25) [µM] | IC50 (CDK6/cyclinD3) [µM] | IC50 (CDK2/cyclinE) [µM] | GI50 (HCT116; 72 hrs) [µM] | GI50 (T98G; 72 hrs) [µM] | GI50 (NCI-H23; 72 hrs) [µM] | GI50 (A549; 72 hrs) [µM] | GI50 (U-87MG; 72 hrs) [µM] | Structure (SMILES) | also measured
1.15 | 2.64 | – | – | – | – | – | – | – | – | – | – | – | – | Nc1nccc(-c2cc(-c3ccnc(N)n3)c(O)cn2)n1 [Example 3, 4,6-bis(2-aminopyrimidin-4-yl)pyridin-3-ol] | GI50 (SH-SY5Y): 0.88 µM; GI50 (SK-N-SH): 1.43 µM
0.01 | – | 0.03 | 0.02 | 0.0637 | 0.0007 | 0.0019 | 0.0596 | 0.0146 | – | – | – | – | – | CN(C)c1cc(-c2nc(-c3ccnc(N)c3F)ccc2O)nc(N)n1 [Example 52, 2′-amino-6-(2-amino-6-(dimethylamino)pyrimidin-4-yl)-3′-fluoro-[2,4′-bipyridin]-5-ol] | –
0.003 | 0.01 | 0.01 | 0.01 | 0.0813 | 0.001 | 0.0028 | 0.0358 | 0.0045 | – | – | – | – | – | Nc1nc(-c2nc(-c3ccnc(N)c3F)ccc2O)cc(N2CCOCC2)n1 [Example 51, 2′-amino-6-(2-amino-6-morpholinopyrimidin-4-yl)-3′-fluoro-[2,4′-bipyridin]-5-ol] | GI50 (T98G; Homo sapiens, T98G, 72 h): 0.01 µM
0.002 | 0.004 | 0.02 | 0.005 | – | – | – | – | – | – | – | – | – | – | CN1CCCC(c2cc(-c3nc(-c4ccnc(N)c4F)ccc3O)nc(N)n2)C1 (stereo not drawn) [Example 38, 2′-amino-6-(2-amino-6-(1-methylpiperidin-3-yl)pyrimidin-4-yl)-3′-fluoro-[2,4′-bipyridin]-5-ol] | GI50 (T98G; Homo sapiens, T98G, 72 h): 0.02 µM
– | 0.06 | – | 0.08 | – | – | – | – | – | 0.03 | 0.13 | 0.09 | – | – | CCc1cnc(N)nc1-c1nc(-c2ccnc(N)c2F)ccc1O [Example 56, 2′-amino-6-(2-amino-5-ethylpyrimidin-4-yl)-3′-fluoro-[2,4′-bipyridin]-5-ol] | –
– | – | – | – | – | – | – | – | – | 0.15 | 0.48 | 0.52 | 0.23 | 0.32 | CCN1CCC(c2nc(N)nc(-c3nc(-c4ccnc(N)c4F)ccc3O)c2C)CC1 [Example 94, 2′-amino-6-(2-amino-6-(1-ethylpiperidin-4-yl)-5-methylpyrimidin-4-yl)-3′-fluoro-[2,4′-bipyridin]-5-ol 4hydrochloride] | –
0.05 | 0.15 | 1.71 | 0.19 | 0.0393 | 0.0171 | 0.00989 | 0.24 | 0.0037 | – | – | – | – | – | Nc1nc(-c2nc(-c3ccnc(N)c3F)ccc2O)cc(C2CCNCC2)n1 [Example 33, 2′-amino-6-(2-amino-6-(piperidin-4-yl)pyrimidin-4-yl)-3′-fluoro-[2,4′-bipyridin]-5-ol] | GI50 (T98G; Homo sapiens, T98G, 72 h): 0.26 µM
– | – | – | – | – | – | – | – | – | 0.01 | 0.02 | 0.03 | 0.04 | 0.03 | CCc1cnc(N)nc1-c1nc(-c2ccnc(N)c2F)ccc1O [Example 102, 2′-amino-6-(2-amino-5-ethylpyrimidin-4-yl)-3′-fluoro-[2,4′-bipyridin]-5-ol 3hydrochloride] | –

Further lines, the compound ahead of its results:

Structure (SMILES) | GI50 (HCT116; Homo sapiens, HCT-116, 72 h) [µM] | GI50 (U-87MG; Homo sapiens, U-87 MG, 72 h) [µM] | GI50 (NCI-H23; Homo sapiens, NCI-H23, 72 h) [µM] | GI50 (A549; Homo sapiens, A549, 72 h) [µM] | IC50 (CDK4/cyclinD1) [µM] | IC50 (CDK1/cyclinB) [µM] | IC50 (CDK5/p25) [µM] | IC50 (CDK6/cyclinD3) [µM] | IC50 (CDK2/cyclinE) [µM] | GI50 (HCT116; 72 hrs) [µM] | GI50 (T98G; 72 hrs) [µM] | GI50 (NCI-H23; 72 hrs) [µM] | GI50 (A549; 72 hrs) [µM] | GI50 (U-87MG; 72 hrs) [µM] | also measured
CC(C)c1cnc(N)nc1-c1nc(-c2ccnc(N)c2F)ccc1O [Example 104] | – | – | – | – | 0.0152 | 0.0013 | 0.0008 | 0.0541 | 0.0016 | 0.03 | 0.05 | 0.08 | 0.08 | 0.07 | –
Cc1cc(-c2nc(-c3ccnc(N)c3F)ccc2O)nc(N)n1 [Example 24, 2′-amino-6-(2-amino-6-methylpyrimidin-4-yl)-3′-fluoro-[2,4′-bipyridin]-5-ol] | 0.02 | – | – | – | 0.342 | 0.0006 | 0.0007 | 0.0338 | 0.0009 | – | – | – | – | – | –
CN1CCC(c2cc(-c3nc(-c4ccnc(N)c4F)ccc3O)nc(N)n2)CC1 [Example 34, 2′-amino-6-(2-amino-6-(1-methylpiperidin-4-yl)pyrimidin-4-yl)-3′-fluoro-[2,4′-bipyridin]-5-ol] | – | – | – | – | 0.0315 | 0.0021 | 0.0022 | 0.176 | 0.0022 | 0.02 | 0.15 | 0.07 | 0.04 | 0.03 | Phosphorylation (%) of Tau (Tau protein; 0.003 uM): 103%; Phosphorylation (%) of Tau (Tau protein; 0.01 uM): 27%; Phosphorylation (%) of Tau (Tau protein; 0.03 uM): 13%; Phosphorylation (%) of Tau (Tau protein; 0.1 uM): 21%; Phosphorylation (%) of Tau (Tau protein; 0.3 uM): 21%
CC(C)c1cc(-c2nc(-c3ccnc(N)c3F)ccc2O)nc(N)n1 [Example 31, 2′-amino-6-(2-amino-6-isopropylpyrimidin-4-yl)-3′-fluoro-[2,4′-bipyridin]-5-ol] | 0.03 | – | 0.1 | 0.18 | 0.0359 | 0.0023 | 0.00313 | 0.0615 | 0.00059 | – | – | – | – | – | –
CN1CCN(c2cc(-c3nc(-c4ccnc(N)c4F)ccc3O)nc(N)n2)CC1 [Example 53, 2′-amino-6-(2-amino-6-(4-methylpiperazin-1-yl)pyrimidin-4-yl)-3′-fluoro-[2,4′-bipyridin]-5-ol] | 0.01 | 0.03 | 0.04 | 0.02 | > 0.2 | 0.004 | 0.0028 | 0.0868 | 0.0108 | – | – | – | – | – | –
Cc1cnc(N)nc1-c1nc(-c2ccnc(N)c2F)ccc1O [Example 100, 2′-amino-6-(2-amino-5-methylpyrimidin-4-yl)-3′-fluoro-[2,4′-bipyridin]-5-ol 3hydrochloride] | – | – | – | – | – | – | – | – | – | 0.03 | 0.05 | 0.07 | 0.07 | 0.06 | –
